{"source": "patent US9151761B2", "about": "“Predictive biomarker of survival in the treatment of renal cell carcinoma” (Amgen Inc., priority 2011, dated 2015)", "tested_on": "advanced clear cell carcinoma of the kidney", "assay": "Phase 2 study of AMG 386 plus sorafenib: progression free survival by baseline serum PLGF above vs below the median (28 pg/mL)", "format": "in vivo, human", "settings": "sorafenib only, 400 mg PO BID (placebo AMG 386), FIG. 4", "procedure": "FIGS. 1-4 are Kaplan-Meier plots showing progression free survival differences between subjects with patient PLGF concentrations above and below the median PLGF concentration parameter (28 pg/mL). 123 patients total with 43 patients administered AMG 386 at 10 mg/kg, 39 patients at 3 mg/kg, and 41 patients at 0 mg/kg. All patients were also dosed with 400 mg sorafenib orally, twice a day. […]\nThe number of patients to be enrolled was approximately 150. […] The primary outcome measured was PFS while the secondary outcome included objective response rate, duration of response, and change in continuous measures of tumor burden.\nRenal cancer patient's circulating levels of protein placental growth factor (PLGF) was analyzed along with a number of other analytes to determine if it was predictive of how well they will respond after treatment with AMG 386 and sorafenib. […] The baseline patient PLGF concentration was analyzed to determine if it was informative of how well the patient would respond to the treatment regimens.\nThe patients PLGF concentrations were determined and tested for statistical association with progression free survival (PFS) time. […] Predictive significance was determined with a Cox proportional hazards model of PFS with the factors PLGF, cohort, and the interaction between PLGF and cohort. […]", "data": [{"molecule": "CNC(=O)c1cc(Oc2ccc(NC(=O)Nc3ccc(Cl)c(C(F)(F)F)c3)cc2)ccn1", "note": "[sorafenib]", "values": [{"measurement": "Cox proportional hazard ratio (HR) of progression free survival, patient PLGF above vs below median", "setting": "41 patients (23 above, 18 below)", "result": 0.83}, {"measurement": "difference in median survival, patient PLGF above vs below median", "setting": "41 patients", "result": 1, "unit": "days"}]}]}
